From patent US8754098B2 (Salix Pharmaceuticals, Ltd., priority 2008, dated 2014)

Columns and labels:
Format in all cases: physicochemical
[1] = Automated moisture sorption/desorption (MB / DVS); conditions: for Post-MB XRPD / Final Form post moisture sorption/desorption: sorption from 5% RH to 95% RH, desorption from 95% RH to 5% RH; for wt loss upon equilibration at 5% RH: moisture balance
Experimental: Automated Moisture Sorption/Desorption Moisture sorption/desorption data were collected on a VTI SGA-100 Vapor Sorption Analyzer. Sorption and desorption data were collected over a range of 5% to 95% relative humidity (RH) at 10% RH intervals under a nitrogen purge. Samples were not dried prior to analysis. Equilibrium criteria used for analysis were less than 0.0100% weight change in 5 minutes, with a maximum equilibration time of 3 hours if the weight criterion was not met. Data were not corrected for the initial moisture content of the samples. NaCl and PVP were used as calibration standards.

[2] = Rifaximin drying experiments (solid form by XRPD); conditions: for XRPD Form: vac oven 50° C., 1 day; for solid form after vacuum dried: vacuum dried (Table 1)
Description: Dried materials obtained by vacuum drying or heating the hydrates were labeled “dry”. […] After a portion of the rifaximin was removed for XRPD analysis the remainder of the sample was dried under vacuum at ambient temperature for approximately one day. Solids were stored in a dessicator prior to analysis by XRPD. (FIG. 9)

[3] = Stressing under various relative humidities (solid form by XRPD); conditions: for RH stability: solid form change after exposing to 58% RH / RH stability: solid form change after exposing to 75% RH: am = amorphous
Experimental: Stressing Under Various Relative Humidities (RH)
The jar was sealed and stored at either ambient temperature or in an oven at elevated temperature.
X-ray powder diffraction (XRPD) analyses were performed using a Shimadzu XRD-6000 X-ray powder diffractometer using Cu Kα radiation. The instrument is equipped with a long fine focus X-ray tube. The tube voltage and amperage were set to 40 kV and 40 mA, respectively. The divergence and scattering slits were set at 1° and the receiving slit was set at 0.15 mm. Diffracted radiation was detected by a NaI scintillation detector. A θ-2θ continuous scan at 3°/min (0.4 sec/0.02° step) from 2.5 to 40°2θ was used. A silicon standard was analyzed to check the instrument alignment. Data were collected and analyzed using XRD-6100/7000 v. 5.0. Samples were prepared for analysis by placing them in a sample holder.
X-ray powder diffraction (XRPD) analyses were performed using an Inel XRG-3000 diffractometer equipped with a CPS (Curved Position Sensitive) detector with a 2θ range of 120°. Real time data were collected using Cu—Kα radiation starting at approximately 4° 2θ at a resolution of 0.03° 2θ. The tube voltage and amperage were set to 40 kV and 30 mA, respectively. The monochromator slit was set at 5 mm by 160 μm. […] Samples were prepared for analysis by packing them into thin-walled glass capillaries. Each capillary was mounted onto a goniometer head that is motorized to permit spinning of the capillary during data acquisition. The samples were analyzed for 300 sec. Instrument calibration was performed using a silicon reference standard.

[4] = Stressing of amorphous rifaximin (vapor stress, vapor diffusion); conditions: for form from vapor diffusion experiment: water as an antisolvent
Experimental: (§1) Vapor stressing experiments were done on amorphous material from two preparations: lyophilization from p-dioxane:water 1:1 and crash precipitation from ethyl acetate with heptane. […] The majority of the stressed samples appeared as clear red solutions after 6 days. Those solutions were placed in vials of antisolvent for vapor diffusion. Dry and wet milling experiments were conducted on amorphous materials from the two preparations mentioned above. Amorphous materials were recovered from the dry milling experiments.

[5] = Milling experiments for amorphous rifaximin; conditions: scraped sides
Experimental: as §1
A solid sample of rifaximin was charged to a milling container with a milling ball. Samples were milled for 5 or 15 minute intervals (2×5 minutes, 2×15 minutes, and 3×15 minutes) at 30 Hz using a Retsch MM200 mixer mill. Solids were scraped from the sides of the vial after each interval.

[6] = first amorphous sample of Table 3 (footnote c, 3436-54)
[7] = second amorphous sample of Table 3 (footnote d, 3436-55)

**Q.** For CO[C@H]1/C=C/O[C@@]2(C)Oc3c(C)c(O)c4c(O)c(c5c(nc6cc(C)ccn65)c4c3C2=O)NC(=O)/C(C)=C\C=C\[C@H](C)[C@H](O)[C@@H](C)[C@@H](O)[C@@H](C)[C@H](OC(C)=O)[C@@H]1C [Form α-dry, Rifaximin], which “Post-MB XRPD / Final Form post moisture sorption/desorption” value ([1]; listed as α dry) is on record?
**A.** Its value is “α dry”.

**Q.** And the “XRPD Form” value [2]?
**A.** Its value is “α dry”.

**Q.** What about the “XRPD Form” value ([2]; vac oven 60° C.) of the same compound?
**A.** The value was “α dry”.

**Q.** What about the “solid form after vacuum dried” value ([2]; listed as α dry) of the same compound?
**A.** Its value is “α dry”.

**Q.** And the “Final Form” value ([3]; 33% RH, 2 days)?
**A.** The value was “α”.

**Q.** What about the “Final Form” value ([3]; 33% RH, 7 days) of the same compound?
**A.** The value was “α”.

**Q.** What about the “Final Form” value ([3]; 43% RH, 4 days) of the same compound?
**A.** Its value is “α + β”.

**Q.** What about the “Final Form” value ([3]; 43% RH, 11 days) of the same compound?
**A.** The value was “β + (α)”.

**Q.** And the “RH stability: solid form change after exposing to 58% RH” value ([3]; listed as α dry)?
**A.** The value was “β”.

**Q.** What about the “RH stability: solid form change after exposing to 75% RH” value ([3]; listed as α dry) of the same compound?
**A.** The value was “β”.

**Q.** And the “RH stability: solid form change after exposing to 94% RH” value ([3]; 94% RH)?
**A.** Its value is “β”.

**Q.** Which “XRPD Form” value ([3]; P2O5, 4 days) does the source give for CO[C@H]1/C=C/O[C@@]2(C)Oc3c(C)c(O)c4c(O)c(c5c(nc6cc(C)ccn65)c4c3C2=O)NC(=O)/C(C)=C\C=C\[C@H](C)[C@H](O)[C@@H](C)[C@@H](O)[C@@H](C)[C@H](OC(C)=O)[C@@H]1C [Form β, Rifaximin, reference compound] here?
**A.** The value was “α dry”.

**Q.** With CO[C@H]1/C=C/O[C@@]2(C)Oc3c(C)c(O)c4c(O)c(c5c(nc6cc(C)ccn65)c4c3C2=O)NC(=O)/C(C)=C\C=C\[C@H](C)[C@H](O)[C@@H](C)[C@@H](O)[C@@H](C)[C@H](OC(C)=O)[C@@H]1C [Form β-1, Rifaximin] as the compound, how does the “RH stability: solid form change after exposing to 58% RH” value ([3]; listed as β-1) read?
**A.** The value was “β + pk”.

**Q.** What about the “RH stability: solid form change after exposing to 75% RH” value ([3]; listed as β-1) of the same compound?
**A.** The value was “β”.

**Q.** Which results are given for CO[C@H]1/C=C/O[C@@]2(C)Oc3c(C)c(O)c4c(O)c(c5c(nc6cc(C)ccn65)c4c3C2=O)NC(=O)/C(C)=C\C=C\[C@H](C)[C@H](O)[C@@H](C)[C@@H](O)[C@@H](C)[C@H](OC(C)=O)[C@@H]1C [Form β-2, Rifaximin]?
**A.** solid form after vacuum dried ([2]; listed as β-2): α dry; RH stability: solid form change ([3]; studied at 20% RH (footnote d)): α^d

**Q.** What does the source list for CO[C@H]1/C=C/O[C@@]2(C)Oc3c(C)c(O)c4c(O)c(c5c(nc6cc(C)ccn65)c4c3C2=O)NC(=O)/C(C)=C\C=C\[C@H](C)[C@H](O)[C@@H](C)[C@@H](O)[C@@H](C)[C@H](OC(C)=O)[C@@H]1C [Form γ, Rifaximin, reference compound]?
**A.** hygroscopicity [1]: hygroscopic; wt loss upon equilibration at 5% RH [1]: 2.4%

**Q.** For CO[C@H]1/C=C/O[C@@]2(C)Oc3c(C)c(O)c4c(O)c(c5c(nc6cc(C)ccn65)c4c3C2=O)NC(=O)/C(C)=C\C=C\[C@H](C)[C@H](O)[C@@H](C)[C@@H](O)[C@@H](C)[C@H](OC(C)=O)[C@@H]1C [Form ζ, Rifaximin], which “solid form after vacuum dried” value [2] is on record?
**A.** Its value is “η or and γ + η”.

**Q.** What about the “XRPD Form / Final Form after stability chamber” value ([3]; 75% RH at 40° C., 1 day) of the same compound?
**A.** The value was “ζ + γ^e”.

**Q.** For CO[C@H]1/C=C/O[C@@]2(C)Oc3c(C)c(O)c4c(O)c(c5c(nc6cc(C)ccn65)c4c3C2=O)NC(=O)/C(C)=C\C=C\[C@H](C)[C@H](O)[C@@H](C)[C@@H](O)[C@@H](C)[C@H](OC(C)=O)[C@@H]1C [Form η, Rifaximin], which “solid form after vacuum dried” value ([2]; listed as η) is on record?
**A.** The value was “η”.

**Q.** For CO[C@H]1/C=C/O[C@@]2(C)Oc3c(C)c(O)c4c(O)c(c5c(nc6cc(C)ccn65)c4c3C2=O)NC(=O)/C(C)=C\C=C\[C@H](C)[C@H](O)[C@@H](C)[C@@H](O)[C@@H](C)[C@H](OC(C)=O)[C@@H]1C [amorphous, Rifaximin], which “XRPD Result” value ([4]; DCM, VD w/ IPE, 11 days) is on record?
**A.** The value was “amorphous”.

**Q.** And the “XRPD Result” value ([4]; MEK, VD w/ IPE, 11 days)?
**A.** Its value is “amorphous”.

**Q.** What about the “form from vapor diffusion experiment” value ([4]; methanol) of the same compound?
**A.** Its value is “Form β”.

**Q.** And the “form from vapor diffusion experiment” value ([4]; tetrahydrofuran)?
**A.** Its value is “Form β”.

**Q.** What about the “XRPD Result” value ([4]; toluene, VS, RT, 6 days, Amorphous Materials) of the same compound?
**A.** Its value is “amorphous”.

**Q.** What about the “XRPD Result” value ([4]; toluene, VS, RT, 6 days, listed as amorphous material) of the same compound?
**A.** Its value is “no peaks”.

**Q.** And the “XRPD Result” value ([4]; water, VS, RT, 15 days)?
**A.** Its value is “amorphous”.

**Q.** What about the “DVS weight gain from 5-95% RH” value [1, 6] of the same compound?
**A.** The value was 8.364% eight gain from 5-95%.

**Q.** What about the “DVS weight loss from 95-5% RH” value [1, 6] of the same compound?
**A.** Its value is 10.989% weight loss from 95-.

**Q.** What about the “wt loss upon equilibration at 5% RH” value ([1]; listed as Rifaximin Amorphous) of the same compound?
**A.** The value was 0.7% wt loss upon equilibration at 5% RH.

**Q.** What about the “DVS weight gain from 5-95% RH” value [1, 7] of the same compound?
**A.** The value was 7.843% weight gain from 5-.

**Q.** What about the “DVS weight loss from 95-5% RH” value [1, 7] of the same compound?
**A.** The value was 9.172% weight loss from 95-5%.

**Q.** And the “Post-MB XRPD / Final Form post moisture sorption/desorption” value ([1]; listed as Amorphous)?
**A.** The value was “amorphous”.

**Q.** And the “Post-MB XRPD / Final Form post moisture sorption/desorption” value ([1]; listed as Amorphous rifaximin)?
**A.** Its value is “amorphous”.

**Q.** And the “Post-MB XRPD / Final Form post moisture sorption/desorption” value ([1]; listed as Rifaximin Amorphous)?
**A.** Its value is “amorphous”.

**Q.** And the “XRPD Result after milling” value ([5]; sample source CP from EtOAc with heptane, 10 min. at 30 Hz)?
**A.** Its value is “amor-”.

**Q.** And the “XRPD Result after milling” value ([5]; sample source lyophilization from p-dioxane: water 1:1, 10 min. at 30 Hz)?
**A.** The value was “amor-”.

**Q.** What about the “form by XRPD analysis after storage” value ([3]; 58% RH for 8 days) of the same compound?
**A.** Its value is “remained amorphous”.

**Q.** What about the “RH stability: solid form change after exposing to 58% RH” value [3] of the same compound?
**A.** The value was “am”.

**Q.** And the “RH stability: solid form change after exposing to 75% RH” value [3]?
**A.** The value was “am”.

**Q.** For CO[C@H]1/C=C/O[C@@]2(C)Oc3c(C)c(O)c4c(O)c(c5c(nc6cc(C)ccn65)c4c3C2=O)NC(=O)/C(C)=C\C=C\[C@H](C)[C@H](O)[C@@H](C)[C@@H](O)[C@@H](C)[C@H](OC(C)=O)[C@@H]1C [crash amorphous rifaximin, Rifaximin], which hygroscopicity [1] is on record?
**A.** Its hygroscopicity is “moderately hygroscopic”.

**Q.** For CO[C@H]1/C=C/O[C@@]2(C)Oc3c(C)c(O)c4c(O)c(c5c(nc6cc(C)ccn65)c4c3C2=O)NC(=O)/C(C)=C\C=C\[C@H](C)[C@H](O)[C@@H](C)[C@@H](O)[C@@H](C)[C@H](OC(C)=O)[C@@H]1C [lyophilized amorphous rifaximin, Rifaximin], which hygroscopicity [1] is on record?
**A.** The hygroscopicity was “moderately hygroscopic”.
